Data reported in PubChem BioAssay AID1963849 (Molecular Pharmacology Branch, DTP, NCI, 2024).

System: 299254-011-R-J1-PDC complex spheroid viability
Experiment: Anticancer human tumor 299254-011-R-J1-PDC patient-derived melanoma cell line growth inhibition [POLQ]
Settings: for IC50: curve of first compound; for viability, T/C: stronger effect = lower value
Description: Multicellular complex tumor spheroid response to Polymerase (POL) inhibitors (novobiocin, ART-558, RP6685) in combination with a variety of drugs and investigational agents in selected tumor cell lines
The POL inhibitors (novobiocin, ART-558, and RP6685) were evaluated both individually and in combination with standard of care and investigational anticancer small molecules within a complex spheroid model of solid tumors. . Complex spheroids include a stromal component modeled by human endothelial cells (HUVEC) and fibroblasts modeled by human mesenchymal stem cells (MSCs). The concentration ranges selected for each drug and investigational agent were based upon clinically achievable concentrations if the clinical Cmax of the agent was known.
Compounds. The drugs and investigational agents: novobiocin (NSC847541), ART-558 (NSC835418), RP-6685 (NSC848927), peposertib (NSC802822), ceralasertib (NSC780249), elimusertib (NSC800525), camonsertib (NSC841442), AZD-1390 (NSC803789), olaparib (NSC753686), talazoparib (NSC767125), rucaparib (NSC756644), sotorasib (NSC818433), MRTX-1133 (NSC836407), SN-38 (NSC673596), topotecan (NSC609699), epotoside (NSC141540), doxorubicin (NSC123127), gemcitabine (NSC613327), 5-fluorouracil (NSC19893), paclitaxel (NSC125973), vemurafenib (NSC761431), MSA-2 (NSC828583), SN-011 (NSC837082), adavosertib (NSC754352), prexasertib (NSC758257), carboplatin (NSC241240) and oxaliplatin (NSC266046), were obtained from the National Cancer Institute (NCI) Developmental Therapeutics Program Chemical Repository (21). The FDA-approved anticancer drug set is available from the Developmental Therapeutics Program at https://dtp.cancer.gov/organization/dscb/obtaining/. […] The stock solutions were prepared in dimethyl sulfoxide (DMSO, Sigma-Aldrich, St. Louis, MO, cat. D2650), except for the platinum compounds which were prepared in saline (Quality Biological, Gaithersburg, MD, cat. 114-055-101), at 800-fold the tested concentration and stored at -70 degrees C prior to their use. All drugs and investigational agents were tested over a range starting from a high concentration at or near the clinical Cmax and decreasing in half-log increments. If the clinical Cmax for an agent had not been determined, the highest concentration tested was 10 microM, except for SN-38, which was tested at a high concentration of 1 microM.
Cell Culture. All cells were maintained in an incubator at 37 degrees C and 5% CO2 with 95% humidity. The PDC lines were cultured according to standard operating procedures established by the NCI PDMR (https://pdmr.cancer.gov). Table 3 of the manuscript, lists the cell lines along with the number of the three cell types plated to form the mct-spheroids and media for tumor cell growth. After thawing, all PDC lines, except 997537-175-T-J1-PDC and 415267-285-R-J2-PDC, were cultured in Matrigel-coated flasks prepared with a working solution of 1X Ham's F-12 nutrient mix, without supplementation (Thermo Fisher Scientific, cat. 11765054), 100 U/mL penicillin-streptomycin (Thermo Fisher Scientific, cat. 15140122), and 2.5% Matrigel (Corning Inc., Corning, NY, cat. 354248) for the first three passages. The two PDC lines 997537-175-T-J1-PDC and 415267-285-R-J2-PDC were cultured on uncoated flasks. The 857933-349-R-J2-PDC line was cultured in 6C/Colon 1B media containing advanced DMEM/F-12 (Thermo Fisher Scientific, cat. 12634028), 10 mM HEPES (Thermo Fisher Scientific, cat. 15630080), 1X GlutaMAX supplement (Thermo Fisher Scientific, cat. 35050061), 0.1 mg/mL primocin (InvivoGen, San Diego, CA, cat. ant-pm-2), 10% defined fetal bovine serum, heat inactivated (HyClone Laboratories Inc., Logan, UT, cat. SH30070.03HI), 50% L-WRN conditioned media (ATCC, cat. CRL-3276), 1.25 mM N-Acetyl-L-cysteine (Sigma-Aldrich, cat. A9165), 10 mM nicotinamide (Sigma-Aldrich, cat. N0636), 1X B-27 supplement (Thermo Fisher Scientific, cat. 17504044), 1X N-2 supplement (Thermo Fisher Scientific, cat. […]
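Note: spheroids exposed to drugs for one week before measurement.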
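Throughout, for viability, T/C: percent viability relative to DMSO vehicle control taken as 100%.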

Q: With `CCc1c2c(nc3ccc(O)cc13)-c1cc3c(c(=O)n1C2)COC(=O)[C@]3(O)CC` + COC1C(OC(N)=O)C(O)C(Oc2ccc3c(O)c(NC(=O)c4ccc(O)c(CC=C(C)C)c4)c(=O)oc3c2C)OC1(C)C as the molecule, how does the IC50 (second compound 0.0316 µM) read?
A: Its IC50 is greater than 1000 nM.

Q: And the IC50 (second compound 0.1 µM)?
A: Its IC50 is greater than 1000 nM.

Q: And the IC50 (second compound 0.316 µM)?
A: Its IC50 is greater than 1000 nM.

Q: And the IC50 (second compound 1 µM)?
A: The IC50 was greater than 1000 nM.

Q: What about the IC50 (second compound 3.16 µM) of the same molecule?
A: The IC50 was greater than 1000 nM.

Q: What about the IC50 (second compound 10 µM) of the same molecule?
A: Its IC50 is greater than 1000 nM.

Q: And the viability, T/C (second compound 0.0316 µM, first compound 0.00316 µM)?
A: Its viability, T/C is 109%.

Q: And the viability, T/C (second compound 0.0316 µM, first compound 0.01 µM)?
A: The viability, T/C was 77.5%.

Q: And the viability, T/C (second compound 0.0316 µM, first compound 0.0316 µM)?
A: The viability, T/C was 69.4%.

Q: What about the viability, T/C (second compound 0.0316 µM, first compound 0.1 µM) of the same molecule?
A: Its viability, T/C is 65.4%.

Q: And the viability, T/C (second compound 0.0316 µM, first compound 0.316 µM)?
A: Its viability, T/C is 70.4%.

Q: What about the viability, T/C (second compound 0.0316 µM, first compound 1 µM) of the same molecule?
A: Its viability, T/C is 48.9%.

Q: What about the viability, T/C (second compound 0.1 µM, first compound 0.00316 µM) of the same molecule?
A: Its viability, T/C is 114%.

Q: And the viability, T/C (second compound 0.1 µM, first compound 0.01 µM)?
A: Its viability, T/C is 91.8%.

Q: What about the viability, T/C (second compound 0.1 µM, first compound 0.0316 µM) of the same molecule?
A: Its viability, T/C is 64.3%.

Q: What about the viability, T/C (second compound 0.1 µM, first compound 0.1 µM) of the same molecule?
A: Its viability, T/C is 64.5%.

Q: What about the viability, T/C (second compound 0.1 µM, first compound 0.316 µM) of the same molecule?
A: The viability, T/C was 66.3%.

Q: What about the viability, T/C (second compound 0.1 µM, first compound 1 µM) of the same molecule?
A: The viability, T/C was 57.8%.

Q: What about the viability, T/C (second compound 0.316 µM, first compound 0.00316 µM) of the same molecule?
A: The viability, T/C was 91.8%.

Q: What about the viability, T/C (second compound 0.316 µM, first compound 0.01 µM) of the same molecule?
A: The viability, T/C was 87.1%.

Q: And the viability, T/C (second compound 0.316 µM, first compound 0.0316 µM)?
A: The viability, T/C was 77.2%.

Q: And the viability, T/C (second compound 0.316 µM, first compound 0.1 µM)?
A: The viability, T/C was 64.8%.

Q: And the viability, T/C (second compound 0.316 µM, first compound 0.316 µM)?
A: Its viability, T/C is 61.5%.

Q: What about the viability, T/C (second compound 0.316 µM, first compound 1 µM) of the same molecule?
A: Its viability, T/C is 56.2%.

Q: What about the viability, T/C (second compound 1 µM, first compound 0.00316 µM) of the same molecule?
A: Its viability, T/C is 112%.

Q: And the viability, T/C (second compound 1 µM, first compound 0.01 µM)?
A: Its viability, T/C is 92.1%.

Q: And the viability, T/C (second compound 1 µM, first compound 0.0316 µM)?
A: Its viability, T/C is 77.9%.

Q: And the viability, T/C (second compound 1 µM, first compound 0.1 µM)?
A: The viability, T/C was 62.5%.

Q: What about the viability, T/C (second compound 1 µM, first compound 0.316 µM) of the same molecule?
A: The viability, T/C was 64%.

Q: What about the viability, T/C (second compound 1 µM, first compound 1 µM) of the same molecule?
A: Its viability, T/C is 59.4%.

Q: And the viability, T/C (second compound 3.16 µM, first compound 0.00316 µM)?
A: The viability, T/C was 93.9%.

Q: And the viability, T/C (second compound 3.16 µM, first compound 0.01 µM)?
A: Its viability, T/C is 77.5%.

Q: And the viability, T/C (second compound 3.16 µM, first compound 0.0316 µM)?
A: The viability, T/C was 68.8%.

Q: And the viability, T/C (second compound 3.16 µM, first compound 0.1 µM)?
A: The viability, T/C was 69.4%.

Q: What about the viability, T/C (second compound 3.16 µM, first compound 0.316 µM) of the same molecule?
A: Its viability, T/C is 63%.

Q: And the viability, T/C (second compound 3.16 µM, first compound 1 µM)?
A: Its viability, T/C is 56.6%.

Q: And the viability, T/C (second compound 10 µM, first compound 0.00316 µM)?
A: Its viability, T/C is 99.2%.

Q: What about the viability, T/C (second compound 10 µM, first compound 0.01 µM) of the same molecule?
A: Its viability, T/C is 89.3%.

Q: And the viability, T/C (second compound 10 µM, first compound 0.0316 µM)?
A: Its viability, T/C is 71.7%.

Q: And the viability, T/C (second compound 10 µM, first compound 0.1 µM)?
A: The viability, T/C was 60.9%.

Q: And the viability, T/C (second compound 10 µM, first compound 0.316 µM)?
A: The viability, T/C was 63.6%.

Q: And the viability, T/C (second compound 10 µM, first compound 1 µM)?
A: Its viability, T/C is 48.8%.
